Experimental data as given in patent US7449567B2, “Isolation and identification of mouse and human transcription control elements associated with cytochrome expression” (Xenogen Corporation, priority 2001, dated 2008).
Like-named read-outs stand apart in the source and are kept apart here.

Experiments:
hPXR = target: T1, hPXR (Homo sapiens, UniProt O75469); conditions: cited from earlier work
T1 sequence (O75469 1-434): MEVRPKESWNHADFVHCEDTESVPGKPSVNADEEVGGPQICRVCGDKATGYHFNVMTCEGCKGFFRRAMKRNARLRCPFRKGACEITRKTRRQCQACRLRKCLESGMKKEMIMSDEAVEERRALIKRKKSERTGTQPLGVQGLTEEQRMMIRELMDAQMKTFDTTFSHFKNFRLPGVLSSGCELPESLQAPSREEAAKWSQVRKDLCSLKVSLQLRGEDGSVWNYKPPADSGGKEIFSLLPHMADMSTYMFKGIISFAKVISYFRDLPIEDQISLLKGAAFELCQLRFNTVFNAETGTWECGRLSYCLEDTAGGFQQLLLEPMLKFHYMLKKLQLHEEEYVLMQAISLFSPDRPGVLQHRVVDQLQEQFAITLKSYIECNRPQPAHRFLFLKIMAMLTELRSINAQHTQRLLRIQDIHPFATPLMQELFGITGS

[1] = tested on: CYP3A4-luc transgene (13 kb human CYP3A4 promoter); conditions: mouse, in vivo
Experimental: General methods for evaluating the animal lines were as follows. Tg founders were bred to wild-type FvB mice to generate F1 mice. A female transgenic founder was bred to a wild-type FvB male and a male transgenic founder was bred to a few wild-type FvB females.
A Luciferin stock solution of 30 mg/ml was prepared in sterile PBS.
The route of administration for the drugs and for luciferin was IP. The dose of reagent administration of luciferin substrate and drugs was as follows. Dose of luciferin: 150 mg/kg of a 30 mg/ml luciferin stock was injected IP five minutes before imaging in the IVIS™ (Xenogen Corporation, Alameda, Calif.) system. […] DMSO was administrated as a vehicle control.
Following luciferin administration the animals were anesthetized using gas anesthesia (Isoflurane) and placed in an IVIS™ box (Xenogen Corporation, Alameda, Calif.) for imaging. All animals were imaged before and after chemical administration, and imaged at high resolution (binning 2) for 10 seconds or 1 minute, for males and females, respectively.
NT is the non-treated control. Before each imaging session, mice were injected i.p. with 150 mg/kg luciferin. […] Measurements on each mouse were performed as described above. […] Measurements on each mouse were performed as described above.

[2] = cell culture, Xie et al. 2000, Goodwin et al. 1999

SMILES | induction of CYP3A4 expression via hPXR (hPXR) | induction of the transgene CYP3A4-luc [1] | induction of CYP3A4 expression via hPXR (hPXR; [2]) | induction of the transgene CYP3A4-luc ([1]; FVB (CYP3A4-luc transgenic, line #82))
CCC1(c2ccccc2)C(=O)NC(=O)NC1=O [Phenob, phenobarbitol] | relatively better inducers of CYP3A4 expression | induced the transgene to various degrees |  | 
CC(=O)[C@H]1CC[C@H]2[C@@H]3CC=C4C[C@@H](O)CC[C@]4(C)[C@H]3CC[C@]12C [Preg, pregnenolone] | weaker inducers | all drugs except for Preg induced the transgene |  | 
Clc1ccccc1C(c1ccccc1)(c1ccccc1)n1ccnc1 [Clotrim, clotrimazole] |  |  | relatively better inducers of CYP3A4 expression | induced the transgene CYP3A4-luc better than other three compounds
CC(=O)[C@H]1[C@H](C#N)C[C@H]2[C@@H]3CC=C4C[C@@H](O)CC[C@]4(C)[C@H]3CC[C@@]21C [PCN, 5-pregnene-3b-OL-20-ONE-16a-Carbonitrile] |  | induced the transgene CYP3A4-luc better than other three compounds | weaker inducers | 
